This passage reports IC50 results from patent US11497751B2, “Modulators of Rho-associated protein kinase” (Redx Pharma PLC, priority 2018, dated 2022).

Bounds are passed on as bounds.

For this experiment, the target named is T1, N-terminal 6His-tagged ROCK2 catalytic domain 11-552 (Homo sapiens, UniProt O75116).
T1 construct: N-terminal 6His-tagged ROCK2 catalytic domain 11-552; 6His (N); purchased Dundee University, UK; host or cells: baculovirus expression system
T1 sequence (O75116 11-552): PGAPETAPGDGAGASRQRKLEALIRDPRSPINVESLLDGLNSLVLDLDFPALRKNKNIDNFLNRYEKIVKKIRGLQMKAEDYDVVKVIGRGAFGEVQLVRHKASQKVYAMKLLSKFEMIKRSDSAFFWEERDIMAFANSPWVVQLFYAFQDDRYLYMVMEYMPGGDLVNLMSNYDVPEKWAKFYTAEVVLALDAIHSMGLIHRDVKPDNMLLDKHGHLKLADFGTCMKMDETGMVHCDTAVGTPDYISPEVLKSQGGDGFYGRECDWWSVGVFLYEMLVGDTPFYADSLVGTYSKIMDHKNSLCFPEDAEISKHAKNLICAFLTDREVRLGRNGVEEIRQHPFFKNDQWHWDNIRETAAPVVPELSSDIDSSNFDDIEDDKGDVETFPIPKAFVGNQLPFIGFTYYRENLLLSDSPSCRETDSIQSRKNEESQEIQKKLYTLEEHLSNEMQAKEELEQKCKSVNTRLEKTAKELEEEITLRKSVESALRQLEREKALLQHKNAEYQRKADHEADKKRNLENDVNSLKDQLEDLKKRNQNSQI
The experiment can be described thus: ROCK2 binding activity: ROCK2 inhibition, ADP-Glo Kinase Assay. Particulars: 1.25 nM ROCK2, 100 μM long S6 peptide, 20 μM ATP; 1 hour pre-incubation; read-out: ADP-Glo kinase activity assay ROCK2 Category. Format: biochemical. In short, it runs like this: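 1.25 nM baculovirus-expressed ROCK2 pre-incubated 1 h with compound (1% DMSO), then 100 μM long S6 peptide and 20 μM ATP added for 1 h; 50 mM HEPES pH 7.5, 10 mM Mg acetate, 1 mM DTT. ADP-Glo luminescence; IC50 from four-parameter logistic fit.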
On the technique in general: ADP-Glo turns the ADP formed in a reaction into a luminescent signal.
`Cn1nc(-c2ccc(C(=O)NC(CO)C(F)(F)F)cc2)nc1Nc1ccc2[nH]ncc2c1C1CC1` (centres unmarked) [Example 311]: the IC50 is less than 0.3 µM.
Next, `CC1CC1NC(=O)c1ccc(-c2nc(Nc3ccc4[nH]ncc4c3C3CC3)n(C)n2)cc1` (centres unmarked) [Example 312]: less than 0.3 µM; `CCNC(=O)c1ccc(-c2nc(Nc3ccc4[nH]ncc4c3CC)n(C)n2)cc1OC` [Example 313]: less than 0.3 µM.
For `CCc1c(Nc2nc(-c3ccc(C(=O)NC(C)C)c(OC)c3)nn2C)ccc2[nH]ncc12` [Example 314] the value was less than 0.3 µM; for `CCc1c(Nc2nc(-c3ccc(C(=O)NC4CN(C)C4)c(OC)c3)nn2C)ccc2[nH]ncc12` [Example 315], 0.3 to 3 µM; for `CCc1c(Nc2nc(-c3ccc(C(=O)NCC(F)(F)F)c(OC)c3)nn2C)ccc2[nH]ncc12` [Example 316], less than 0.3 µM.
With `CCc1c(Nc2nc(-c3ccc(C(=O)NCC(F)F)cc3)nn2C)ccc2[nH]ncc12` [Example 317], the IC50 was less than 0.3 µM.
Take `CCc1c(Nc2nc(-c3ccc(C(=O)NC(C)C)cc3)nn2C)ccc2[nH]ncc12` [Example 318]: the IC50 is less than 0.3 µM.
Next, `CCc1c(Nc2nc(-c3ccc(C(=O)NC4CCC(F)(F)C4)cc3)nn2C)ccc2[nH]ncc12` (centres unmarked) [Example 319]: less than 0.3 µM.
As to `CCc1c(Nc2nc(-c3ccc(C(=O)NCC(C)C)cc3)nn2C)ccc2[nH]ncc12` [Example 320], the IC50 was less than 0.3 µM.
For `CCc1c(Nc2nc(-c3ccc(C(=O)NCC(C)(C)C)cc3)nn2C)ccc2[nH]ncc12` [Example 321] the value was less than 0.3 µM; for `CCc1c(Nc2nc(-c3ccc(C(=O)NC(C)C(F)(F)F)cc3)nn2C)ccc2[nH]ncc12` (centres unmarked) [Example 322], less than 0.3 µM.
For `CCNC(=O)c1ccc(-c2nc(Nc3ccc4[nH]ncc4c3CC)n(C)n2)cc1` [Example 323] the value was less than 0.3 µM.
Take `CCNC(=O)c1ccc(-c2nc(Nc3ccc4[nH]ncc4c3)n(C)n2)cc1` [Example 324]: the IC50 was less than 0.3 µM.
Consider `CCNC(=O)c1ccc(-c2nc(Nc3ccc4[nH]ncc4c3)n(C)n2)cc1Cl` [Example 325], for which the IC50 is 0.3 to 3 µM.
Take `CCNC(=O)c1ccc(-c2nc(Nc3ccc4[nH]ncc4c3)n(C)n2)cc1F` [Example 326]: the IC50 was less than 0.3 µM.
In the case of `CCNC(=O)c1ccc(-c2nc(Nc3ccc4[nH]ncc4c3)n(C)n2)c(Cl)c1` [Example 327], the IC50 was less than 0.3 µM.
On to `COc1cc(-c2nc(Nc3ccc4[nH]ncc4c3C)n(C)n2)ccc1C(=O)NC1CN(C)C1` [Example 328], for which the IC50 was in the range of 3 to 10 µM.
For `COc1cc(-c2nc(Nc3ccc4[nH]ncc4c3C)n(C)n2)ccc1C(=O)NCCN(C)C` [Example 329] the value was 3 to 10 µM; for `COc1cc(-c2nc(Nc3cnc4[nH]ncc4c3)n(C)n2)ccc1C(=O)NCC(F)(F)F` [Example 330], less than 0.3 µM.
As for `COc1cc(-c2nc(Nc3cnc4[nH]ncc4c3)n(C)n2)ccc1C(=O)NC(C)C` [Example 331], the IC50 is 0.3 to 3 µM.
Turning to `COc1cc(-c2nc(Nc3cnc4[nH]ncc4c3)n(C)n2)ccc1C(=O)NC1CC1` [Example 332], the IC50 lay within 3 to 10 µM.
As for `COc1cc(-c2nc(Nc3cc4cn[nH]c4cc3C)n(C)n2)ccc1C(=O)NCC(F)(F)F` [Example 335], the IC50 is greater than 10 µM.
As to `COc1cc(-c2nc(Nc3ccc4[nH]ncc4c3F)n(C)n2)ccc1C(=O)NC(C)(C)C` [Example 336], the IC50 was less than 0.3 µM.
`COCCn1nc(-c2ccc(C(=O)NCC(F)(F)F)c(C)c2)nc1Nc1ccc2[nH]ncc2c1C1CC1` [Example 337]: the IC50 is less than 0.3 µM.
For `Cn1nc(-c2ccc(C(=O)NCC(C)(F)F)cc2)nc1Nc1ccc2[nH]ncc2c1C1CC1` [Example 338, 4-[5-[(4-cyclopropyl-1H-indazol-5-yl)amino]-1-methyl-1,2,4-triazol-3-yl]-N-(2,2-difluoropropyl)benzamide], the IC50 was less than 0.3 µM.
For `Cn1ccc(NC(=O)c2ccc(-c3nc(Nc4ccc5[nH]ncc5c4C4CC4)n(C)n3)cc2)n1` [Example 339] the value was less than 0.3 µM; for `CCNC(=O)N1CCC(c2nc(Nc3ccc4[nH]ncc4c3C3CC3)n(C)n2)CC1` [Example 340, 4-[5-[(4-cyclopropyl-1H-indazol-5-yl)amino]-1-methyl-1,2,4-triazol-3-yl]-N-ethyl-piperidine-1-carboxamide], greater than 10 µM; for `CCNC(=O)N1CC=C(c2nc(Nc3ccc4[nH]ncc4c3C3CC3)n(C)n2)CC1` [Example 341, 4-[5-[(4-cyclopropyl-1H-indazol-5-yl)amino]-1-methyl-1,2,4-triazol-3-yl]-N-ethyl-3,6-dihydro-2H-pyridine-1-carboxamide], 0.3 to 3 µM.
For `Cn1nc(-c2ccc(C(=O)NCC(F)(F)F)cc2)nc1Nc1ccc2[nH]ncc2c1C1CC1` [Example 343, 4-[5-[(4-cyclopropyl-1H-indazol-5-yl)amino]-1-methyl-1,2,4-triazol-3-yl]-N-(2,2,2-trifluoroethyl)benzamide] the value was less than 0.3 µM; for `Cn1nc(-c2ccc(C(=O)NC3CC3)cc2)nc1Nc1ccc2[nH]ncc2c1C1CC1` [Example 344, N-Cyclopropyl-4-[5-[(4-cyclopropyl-1H-indazol-5-yl)amino]-1-methyl-1,2,4-triazol-3-yl]benzamide], less than 0.3 µM.
For `CCNC(=O)c1ccc(-c2nc(Nc3ccc4[nH]ncc4c3Cl)n(C)n2)cc1C(F)(F)F` [Example 345] the value was 3 to 10 µM; for `CCNC(=O)c1ccc(-c2nc(Nc3ccc4[nH]ncc4c3Cl)n(C)n2)cc1C` [Example 346], less than 0.3 µM; for `CCNC(=O)c1ccc(-c2nc(Nc3ccc4[nH]ncc4c3Cl)n(C)n2)c(OC)c1` [Example 347], less than 0.3 µM.
For `CC(C)NC(=O)COc1ccc(-c2nc(Nc3ccc4[nH]ncc4c3Cl)n(C)n2)cc1C(F)(F)F` [Example 348], the IC50 was less than 0.3 µM.
For the compound `CC(C)NC(=O)COc1ccc(-c2nc(Nc3ccc4[nH]ncc4c3Cl)n(C)n2)cc1C#N` [Example 349], the IC50 was less than 0.3 µM.
Regarding `Cc1cc(-c2nc(Nc3ccc4[nH]ncc4c3Cl)n(C)n2)ccc1OCC(=O)NC(C)C` [Example 350], the IC50 was less than 0.3 µM.
Next, `CC(C)NC(=O)COc1ccc(-c2nc(Nc3ccc4[nH]ncc4c3Cl)n(C)n2)c(C#N)c1` [Example 351]: less than 0.3 µM.
`CC(C)NC(=O)COc1ccc(-c2nc(Nc3ccc4[nH]ncc4c3Cl)n(C)n2)c(Cl)c1` [Example 352]: the IC50 was less than 0.3 µM.
For `COc1cc(OCC(=O)NC(C)C)ccc1-c1nc(Nc2ccc3[nH]ncc3c2Cl)n(C)n1` [Example 353] the value was less than 0.3 µM; for `Cc1cc(OCC(=O)NC(C)C)ccc1-c1nc(Nc2ccc3[nH]ncc3c2Cl)n(C)n1` [Example 354], less than 0.3 µM; for `CC(C)NC(=O)COc1ccc(-c2nc(Nc3ccc4[nH]ncc4c3Cl)n(C)n2)c(F)c1` [Example 355], less than 0.3 µM.
Consider `CCNC(=O)c1ccc(-c2nc(Nc3ccc4[nH]ncc4c3Cl)n(C)n2)c(F)c1` [Example 356], for which the IC50 is less than 0.3 µM.
`CCNC(=O)c1ccc(-c2nc(Nc3ccc4[nH]ncc4c3Cl)n(C)n2)c(C(F)(F)F)c1` [Example 357]: the IC50 is less than 0.3 µM.
On to `CCNC(=O)c1ccc(-c2nc(Nc3ccc4[nH]ncc4c3Cl)n(C)n2)cc1C#N` [Example 358], for which the IC50 is less than 0.3 µM.
As to `CCNC(=O)c1cc(F)c(-c2nc(Nc3ccc4[nH]ncc4c3Cl)n(C)n2)c(F)c1` [Example 359], the IC50 lay within 0.3 to 3 µM.
Consider `CCNC(=O)c1cc(F)c(-c2nc(Nc3ccc4[nH]ncc4c3Cl)n(C)n2)cc1F` [Example 360], for which the IC50 is less than 0.3 µM.
On to `CCNC(=O)c1c(F)cc(-c2nc(Nc3ccc4[nH]ncc4c3Cl)n(C)n2)cc1F` [Example 361], for which the IC50 lay in the range of 0.3 to 3 µM.
Next, `CC(C)NC(=O)COc1ccc(-c2nc(Nc3ccc4[nH]ncc4c3Cl)n(C)n2)c(F)c1F` [Example 362]: less than 0.3 µM; `COc1cc(-c2nc(Nc3ccc4[nH]ncc4c3Cl)n(C)n2)ccc1C(=O)NC1CCN(CC(F)(F)F)C1` (centres unmarked) [Example 363]: less than 0.3 µM; `Cn1nc(-c2ccc3c(c2)CCNC3=O)nc1Nc1ccc2[nH]ncc2c1Cl` [Example 364]: less than 0.3 µM.
`COc1cc(-c2nc(Nc3ccc4[nH]ncc4c3Cl)n(C)n2)ccc1C(=O)NC1CNCC1(F)F` (centres unmarked) [Example 365]: the IC50 is less than 0.3 µM.
Regarding `Cc1cc(-c2nc(Nc3ccc4[nH]ncc4c3Cl)n(C)n2)ccc1C(=O)NCC(F)(F)F` [Example 366], the IC50 was less than 0.3 µM.
`CN1CCc2cc(-c3nc(Nc4ccc5[nH]ncc5c4Cl)n(C)n3)ccc2C1` [Example 367]: the IC50 was in the range of 3 to 10 µM.
In the case of `CC(C)NC(=O)COc1c(F)cc(-c2nc(Nc3ccc4[nH]ncc4c3Cl)n(C)n2)cc1F` [Example 368], the IC50 is less than 0.3 µM.
As for `CC(C)NC(=O)COc1cc(F)c(-c2nc(Nc3ccc4[nH]ncc4c3Cl)n(C)n2)cc1F` [Example 369], the IC50 is less than 0.3 µM.
`CCNC(=O)c1ccc(-c2nc(Nc3ccc4[nH]ncc4c3Cl)n(C)n2)cn1` [Example 370]: the IC50 was less than 0.3 µM.
As for `Cn1nc(-c2ccc3c(c2)CCN(C(=O)C(C)(C)C)C3)nc1Nc1ccc2[nH]ncc2c1Cl` [Example 371], the IC50 is less than 0.3 µM.
Consider `Cn1nc(-c2ccc3c(c2)CCN(CC(F)(F)F)C3)nc1Nc1ccc2[nH]ncc2c1Cl` [Example 372], for which the IC50 is less than 0.3 µM.
Regarding `CCNC(=O)c1ccc(-c2nc(Nc3ccc4[nH]ncc4c3Cl)n(C)n2)c2cccnc12` [Example 373], the IC50 fell in the range of 0.3 to 3 µM.
For `Cn1nc(-c2ccc(CNS(=O)(=O)c3cccc(Cl)c3)cc2)nc1Nc1ccc2[nH]ncc2c1Cl` [Example 374], the IC50 was less than 0.3 µM.
`COC(=O)c1ccc(-c2nc(Nc3ccc4[nH]ncc4c3C3CC3)n(C)n2)cc1OC` [Example 375]: the IC50 is less than 0.3 µM.
